Like-named read-outs stand apart in the source and are kept apart here.
Experiments:
[1] = target: MTAN (Escherichia coli, UniProt P0AF12); experiment: Enzyme inhibition assay, MTAN (slow-onset inhibition constants); type: biochemical; details: MTAN
Protocol: (§1) Ki as shown in Tables 1 and 2 is the initial inhibition constant formed by the enzyme-inhibitor complex, and Ki* is the equilibrium dissociation constant for inhibition that is observed following a period of slow-onset, tight binding inhibition. Ki* is the biologically effective constant.
(§2) Enzyme assays were conducted to assess the effectiveness of selected compounds of the invention as inhibitors of MTAP and MTAN.
(§3) Inhibitors.—Inhibitor concentrations were determined by the UV absorbance spectrum using the published millimolar extinction coefficients for 9-dazadenine of 8.5 at 275 nm at pH 7.0.
(§4) Assays.—The direct spectrophotometric assay for the conversion of MTA into adenine was measured as the decrease in absorbance at 274 nm. At 274 nm, Δε between MTA and adenine is at a maximum and produces a spectral change of 1.6 absorbance units/cm/mM (DeWolf, W. E. Jr., Fullin, F. A., and Schramm, V. L. (1979) J. Biol. Chem. 254, 10868–10875)
(§5) Slow-Onset Inhibition and Inhibition Constants.—The kinetics for slow onset inhibition and the Ki measurement was carried out by adding a known concentration of enzyme (1–5 nM) to a reaction mixture containing a substrate concentration of 200 μM. This concentration corresponds to an OD of 0.7–1.1 at […]. The formation of product was monitored as a decrease in absorbance at 274 nm. Conditions for Ki* determination used high concentrations of substrate. Two controls, one having no inhibitor and the other no enzyme were included in the experiment. The Ki values MTAP for the various compounds were calculated by fitting in the ratio of initial rates in the presence of inhibitor to without any inhibitor versus the inhibitor concentration, for the known Km and substrate concentration into the following expression.
(§6) Where Vo′ is the rate in the presence of inhibitor • Vo rate in the absence of inhibitor • [I] inhibitor concentration • And [S] is the substrate concentration
(§7) And the Ki* was calculated by fitting to the following expression
(§8) Where Vs′ is the steady-state rate following attainment of equilibrium in the presence inhibitor, and Vs is the steady-state rate in the control having no inhibitor. Both these equations are valid for competitive type inhibition.

[2] = target: T1, human MTAP (Homo sapiens, UniProt Q13126); experiment: Enzyme inhibition assay, MTAP (slow-onset inhibition constants); type: biochemical
T1 construct: inferred from pQE32 vector and Ni-NTA purification) (N); made in house; host or cells: E. coli
T1 sequence (Q13126 1-283): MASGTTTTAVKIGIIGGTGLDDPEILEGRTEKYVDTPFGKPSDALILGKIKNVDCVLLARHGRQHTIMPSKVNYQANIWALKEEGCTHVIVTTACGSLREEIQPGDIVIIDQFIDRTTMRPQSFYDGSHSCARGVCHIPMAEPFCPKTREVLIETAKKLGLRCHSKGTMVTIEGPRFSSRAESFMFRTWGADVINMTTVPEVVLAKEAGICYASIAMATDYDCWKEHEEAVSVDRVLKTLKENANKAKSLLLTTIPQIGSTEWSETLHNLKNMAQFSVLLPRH
Protocol: as §1, §2
Enzymes.—The human MTAP protein was cloned into pQE32 expression vector and transformed into E. coli. Induction cultures containing 1 L (25 mg/L) and 50 μg/mL ampicillin were inoculated with 1 mL overnight grown starter-culture and incubated at 37° C. When the cultures reached an OD of ≈0.6 they were induced with 1.5 mM IPTG for 6 to 8 hours. Cells were harvested by centrifugation at 5000 rpm for 30 min, and subsequently resuspended in a buffer (20 mM imidazole, 300 mM NaCl, 0.2 mM phenylmethylsulfonyl fluoride (PMSF), 100 mM Tris, pH 8.0) containing a small amount of lysozyme to weaken the cell membrane. Cells were lysed with a French press. The insoluble material was removed by high-speed centrifugation. The cell extract was further clarified with 35% ammonium sulfate precipitation followed by high-speed centrifugation. The clarified cell extract was then applied to a 5 mL Ni-NTA column that had previously been equilibrated with the binding buffer. Further chromatographic steps were carried out by FPLC. The column was washed with 10 volumes of 50 mM imidazole, 300 mM NaCl, and 100 mM Tris, pH 8.0, and the protein was eluted with a buffer containing a 50–250 mM gradient of imidazole, 300 mM NaCl, 1 M Tris, pH 8.0. The purity of the protein was verified by running polyacrylamide gel followed by Coomassie staining. The protein was subsequently dialyzed in 50 mM NaCl, 2 mM dithiothreitol (DTT) and 50 mM Tris, pH 7.4, and was concentrated to 10 mg/mL. The purified protein was stored at −80° C. in 100 μL to 150 μL aliquots.
as §3, §4
as §5, with “This” for “Slow-Onset Inhibition and Inhibition Constants.—The kinetics for slow onset inhibition and the Ki measurement was carried out by adding a known concentration of enzyme (1–5 nM) to a reaction mixture containing a substrate concentration of 200 μM. This”
as §6, §7, §8

Chain of MTAN (P0AF12 whole entry): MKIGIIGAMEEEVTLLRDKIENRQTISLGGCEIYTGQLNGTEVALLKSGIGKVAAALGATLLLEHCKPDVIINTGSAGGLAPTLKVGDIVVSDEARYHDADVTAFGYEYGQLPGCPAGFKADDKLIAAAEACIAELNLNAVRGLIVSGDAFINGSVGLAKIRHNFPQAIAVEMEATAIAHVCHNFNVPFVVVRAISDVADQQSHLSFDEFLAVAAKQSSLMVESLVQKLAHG

For `CSC[C@H]1N[C@@H](c2c[nH]c3c(N)ncnc23)C(O)[C@H]1O` (stereo partly shown) [5′-methylthio-ImmA], the Ki ([1]; Ki*, equilibrium dissociation constant after slow-onset, tight binding inhibition) was 0.077 ± 0.02 nM, the Ki ([1]; Ki, initial inhibition constant) was 0.13 ± 0.012 nM and the “Ki*” value ([1]; equilibrium dissociation constant after slow-onset, tight binding inhibition) was “in the pM range”. The Ki ([2]; MTA at 150 μM, Km=2.5 μM, read-out: Ki (FIG. 1, inhibition of MTAP at varying concentrations)) was 0.107 nM, the “Ki*” value ([2]; MTAP, equilibrium dissociation constant after slow-onset, tight binding inhibition) was “in the pM range” and the Ki ([2]; MTAP, equilibrium dissociation constant after slow-onset, tight binding inhibition, read-out: Ki*) was 0.09 ± 0.018 nM. It also gave a Ki ([2]; MTAP, initial inhibition constant, read-out: Ki) of 5 ± 0.5 nM.
